Assay results taken from US20170313604A1, “Wastewater Treatment Method” (PeroxyChem LLC, priority 2016, published 2017).

Test system: E. coli
Test: Full scale trial of peracetic acid disinfection at a wastewater treatment plant (E. coli by IDEXX Colisure method)
Set-up: species or system Escherichia coli
Protocol: A full scale trial of peracetic acid (15% PAA:23% hydrogen peroxide) disinfection was performed at a wastewater treatment plant in Tennessee, USA. The wastewater contained a high level of colored, aromatic molecules discharged from industrial sources involved in the processing of cotton seeds and other sources of lignin and bio-based polymers. The water quality, and as a result the peracetic acid (PAA) demand, was heavily dependent upon the cyclic discharge rates from these industrial sources. Thus, the PAA efficacy in reducing bacterial concentrations within the wastewater was not only dependent upon the overall flow rate of the WWTP, but also upon the time-dependent water quality. The time-dependent water quality demand on PAA at the treatment plant required the inclusion of a PAA feed-forward dosing scheme to insure that the proper dosing of PAA needed to achieve the target microbial reduction was maintained.
Initial testing consisted of collecting continuous, on-line data for four wastewater quality parameters: color, chemical oxygen demand (COD), oxidation/reduction potential (ORP) and UV transmittance (UVT) at 254 nm. Peracetic acid was measured in situ via the Prominent Dulcotest CTE sensor. The sensor was a membrane-capped amperometric, two electrode sensor for the measurement of PAA in aqueous solution. […] PAA contained in the sample water diffused through the membrane, causing a potential difference between electrodes. The primary signal was converted by the amplifier electronics of the sensor into a 4-20 mA, temperature corrected, output signal, which was optimally controlled via the DULCOMETER diaLog DACa controller. Wastewater color was measured on-line utilizing a ChemScan UV-3151 Series Analyzer with a flow-through sensor. The analyzer drew a sample of wastewater from the untreated side of the disinfection channel, representative of the influent wastewater, to the main unit, which was located in the control house. Wastewater COD and % UVT (% ultraviolet transmittance at 254 nm) were measured on-line using a submersible YSI CarboVis model 701 unit. E. coli analysis were performed by a third-party laboratory, using the IDEXX Colisure method.
The data for each quality parameter then was correlated to PAA demand, accounting for wastewater flow rate. E. coli concentrations were measured at the inflow to the disinfection channel, at the mid-point of the disinfection channel and at the outflow.
Subsequent testing was performed with wastewater color as the water quality parameter for feed-forward control of the PAA dose (PAAdemand), coupled with flow pacing.
At least three cycles of water quality (minimum to maximum wastewater color) were tested with flow rates ranging from 50 to 130 MGD. Sixty three E. coli concentrations were measured during this period. […]

[1] = effluent after PAA dosing with color feed-forward control plus flow pacing, flow 50 to 130 MGD, power-outage measurement eliminated

With `CC(=O)OO` [PAA, peracetic acid] the “PAAset point to achieve the desired E. coli reduction” value (at demand neutral performance, this wastewater) was 7 ppm, the “E. coli concentration (all but one of sixty three measurements)” value (below the permitted daily maximum, the exception occurred in a power outage with no PAA dosed) was < 487 cfu/100 mL and the “E. coli arithmetic mean concentration” value [1] was 18 cfu/100 mL. The “E. coli geomean concentration” value [1] was 12 cfu/100 mL.
